Measurements taken from patent publication US20060088556A1 (priority 2003, published 2006).
Structures can show the parent of a compound that is named as a salt.

What was measured:
[1] = Stability in the receiver fluid; assay type: physicochemical; details: PBS receiver fluid, length of the study (48 hours)
Excerpt: (§1) Accurate determination of the rate of transport of buspirone through the skin relies upon the maintenance of sink conditions in the receiver fluid. […] Such high solubility was sufficient to ensure sink conditions for the study.

[2] = system: oxazolone hypersensitivity reaction; details: mice, cited from earlier work
[3] = Solubility in phosphate buffered saline (receiver fluid); assay type: physicochemical; details: aqueous buffer
Excerpt: as §1

| stability in the receiver fluid [1] | solubility [3] [µg/mL] | SMILES | oxazolone ear swelling ([2]; applied topically in an undefined solution, over the range 100 mg/ml to 0.25 mg/ml, McAloon et al. 1995) | inhibition of oxazolone hypersensitivity reactions ([2]; from U.S. Pat. No. 5,484,788, 5,631,017, WO 94/22448) |
| --- | --- | --- | --- | --- |
| stable | – | O=C1CC2(CCCC2)CC(=O)N1CCCCN1CCN(c2ncccn2)CC1 [buspirone, 8-[4-[4-(2-pyrimidyl)-1-piperazinyl]butyl]-8-azaspiro[4.5]decane-7,9-dione] | inhibits oxazolone ear swelling | inhibit oxazolone hypersensitivity reactions |
| – | > 3000 | O=C1CC2(CCCC2)CC(=O)N1CCCCN1CCN(c2ncccn2)CC1 [buspirone hydrochloride] | – | – |
